Patent EP0811615A1, “1-Aryl-5-(substituted alkyl (thio) amido) pyrazoles and their use as pesticides” (RHONE-POULENC AGROCHIMIE, priority 1996, dated 1997)

Legend:
[1] = test system: Mexican bean beetle; experiment: Mexican bean beetle foliar spray test on bean plants; type: in vivo; settings: Epilachna varivestis, 120 h; foliar application at 100 ppm; second instar larvae, held five days; read-out: pest mortality MBB
Protocol: (§1) For mite, aphid, southern armyworm, Mexican bean beetle, and tobacco budworm tests, a solution or suspension was prepared by adding 10 mg of the test compound to a solution of 160 mg of dimethylformamide, 838 mg of acetone, 2 mg of a 3:1 ratio of Triton X-172 : Triton X-152 (respectively, mainly anionic and nonionic low foam emulsifiers which are each anhydrous blends of alkylaryl polyether alcohols with organic sulfonates), and […] of water. The result was a concentration of 100 ppm of the test compound.
(§2) Mexican bean beetle: Potted bean plants were placed on a revolving turntable and sprayed with 100 ml of the 100 ppm test compound formulation, sufficient to wet the plants to runoff, by use of a DeVilbiss spray gun set at 40 psig air pressure. As an untreated control, 100 ml of a water-acetone-DMF-emulsifier solution, containing no test compound, were also sprayed on plants. A treated control with a commercial technical compound, either cypermethrin or sulprofos, formulated in the same manner, was tested as a standard. When dry, the leaves were placed in plastic cups lined with moistened filter paper. Five randomly selected second instar Mexican bean beetle larvae were introduced into each cup which was closed and held for five days. Larvae which were unable to move the length of the body, even upon stimulation by prodding, were considered dead.

[2] = test system: tobacco budworm; experiment: Tobacco budworm foliar spray test on cotton plants; type: in vivo; settings: Heliothis virescens, 120 h; foliar application at 100 ppm; second instar larvae, held five days; read-out: pest mortality TBW
Protocol: as §1
Tobacco budworm: Potted cotton plants were placed on a revolving turntable and sprayed with 100 ml of the 100 ppm test compound formulation by use of a DeVilbiss spray gun set at 40 psig air pressure. As an untreated control, 100 ml of a water-acetone-DMF-emulsifier solution, containing no test compound, were also sprayed on plants. A treated control with a commercial technical compound, either cypermethrin or sulprofos, formulated in the same manner, was tested as a standard. When dry, the leaves were placed in plastic dishes containing a piece of filter paper and a moistened dental wick. One randomly selected second instar tobacco budworm larva was then introduced into each cup which was closed and held for five days. Larvae unable to move the length of their body, even upon stimulation by prodding, were considered dead.

[3] = test system: southern armyworm; experiment: Southern armyworm foliar spray test on bean plants; type: in vivo; settings: Spodoptera eridania, 120 h; foliar application at 100 ppm; second instar larvae, held five days; read-out: pest mortality SAW
Protocol: as §1
as §2, with “Southern armyworm: Potted” for “Mexican bean beetle: Potted”, “bean plants,” for “bean plants”, “compound formulation” for “compound formulation, sufficient to wet the plants to runoff,”, “instar southern armyworm” for “instar Mexican bean beetle”

[4] = test system: southern root-knot nematode; experiment: Southern root-knot nematode soil test on tomato; type: in vivo; design: dose or concentration left out as unconfirmed; settings: Meloidogyne incognita; Soil Conc. at 21 Kg/ha; second stage juveniles; read-out: pest mortality Nema (J2)
Protocol: For southern root-knot nematode and systemic tests for southern armyworm, cotton aphid, tobacco budworm and greenbug, a stock solution or suspension was prepared by adding 15 mg of the test compound to 250 mg of dimethylformamide, 1250 mg of acetone and 3 mg of the emulsifier blend referenced above. Water was then added to provide a test compound concentration of 150 ppm. When necessary, sonication was provided to insure complete dispersion.
Southern root-knot nematode: Infected roots of tomato plants, containing egg masses of southern root-knot nematode, were removed from a stock culture and cleaned of soil by shaking and washing with tap water. The nematode eggs were separated from the root tissue and rinsed with water. Samples of the egg suspension were placed on a fine screen over a receiving bowl, in which the water level was adjusted to be in contact with the screen. From the bowl, juveniles were collected on a fine screen. The bottom of a cone-shaped container was plugged with coarse vermiculite and then filled to within 1.5 cm of the top with about a 200 ml volume of pasteurized soil. Then into a hole made in the center of the soil in the cone was pipetted an aliquot of the 150 ppm test compound formulation. A treated control with a commercial technical compound, fenamifos, formulated in a similar manner, was tested as a standard. As an untreated control, an aliquot of a water-acetone-DMF-emulsifier solution, containing no test compound, was applied in a similar manner. Immediately after treatment of the soil with the test compound there were added to the top of each cone 1000 second stage juvenile southern root-knot nematodes. After 3 days, a single healthy tomato seedling was then transplanted into the cone. The cone, containing the infested soil and tomato seedling, was kept in the greenhouse for 3 weeks. At the termination of the test, […], […]

[5] = test system: housefly; experiment: House fly bait test; type: in vivo; settings: Musca domestica; bait application at 100 ppm; adult flies, after 24 hours; read-out: pest mortality HF
Description: For housefly tests, the formulation was initially prepared in a similar manner to the above, but in 16.3 g of water with corresponding adjustment of other components, providing a 200 ppm concentration. Final dilution with an equal volume of a 20% by weight aqueous solution of sucrose provided a 100 ppm concentration of the test compound. When necessary, sonication was provided to insure complete dispersion.
House fly: Four to six day old adult house flies were reared according to the specifications of the Chemical Specialties Manufacturing Association (Blue Book, McNair-Dorland Co., N.Y. 1954; pages 243-244, 261) under controlled conditions. The flies were immobilized by anesthetizing with carbon dioxide and twenty five immobilized individuals, males and females, were transferred to a cage consisting of a standard food strainer and a wrapping-paper-covered surface. Ten ml of the 100 ppm test compound formulation were added to a soufflé cup containing an absorbent cotton pad. As an untreated control, 10 ml of a water-acetone-DMF-emulsifier-sucrose solution, containing no test compound, were applied in a similar manner. A treated control with a commercial technical compound, malathion, formulated in the same manner, was tested as a standard. The bait cup was introduced inside the food strainer prior to admitting the anesthetized flies.

[6] = test system: buckthorn or cotton aphid; experiment: Buckthorn or cotton aphid foliar spray test; type: in vivo, Aphis nasturtii / Aphis gossypii; settings: Aphis gossypii; foliar application at 100 ppm; counted after one day (buckthorn aphid) or three days (cotton aphid); read-out: pest mortality BA*/CA
Protocol: as §1
Buckthorn or cotton aphid: Adult and nymphal stages of buckthorn or cotton aphid were reared on potted dwarf nasturtium or cotton plants, respectively. The potted plants (one pot per compound tested) infested with 100-150 aphids, were placed on a revolving turntable and sprayed with 100 ml of the 100 ppm test compound formulation by use of a DeVilbiss spray gun set at 40 psig air pressure. As an untreated control, 100 ml of a water-acetone-DMF-emulsifier solution, containing no test compound, were also sprayed on infested plants. A treated control with a commercial technical compound, malathion or cyhalothrin, formulated in the same manner, was tested as a standard. After spraying, the pots were stored for one day on buckthorn aphid or three days for cotton aphid, after which the dead aphids were counted.

CCOCC(=O)Nc1c([S+]([O-])C(F)(Cl)Cl)c(C#N)nn1-c1c(Cl)cc(C(F)(F)F)cc1Cl (stereo not shown) [Compound 18]
70 to 100%: mortality at 100 ppm [1] | mortality at 100 ppm [2] | mortality at 100 ppm [3] | mortality [4]

CCOCC(=O)Nc1c([S+]([O-])C(F)(F)F)c(C#N)nn1-c1c(Cl)cc(C(F)(F)F)cc1Cl (stereo not shown) [Compound 8]
70 to 100%: mortality at 100 ppm [5] | mortality at 100 ppm [1] | mortality at 100 ppm [2] | mortality at 100 ppm [3] | mortality [4]

CCCCCCCOCC(=O)Nc1c(SC(F)(F)F)c(C#N)nn1-c1c(Cl)cc(C(F)(F)F)cc1Cl [Compound 34]
70 to 100%: mortality at 100 ppm [5] | mortality at 100 ppm [3] | mortality [4]

COC(C)C(=O)Nc1c(S(=O)(=O)C(F)(F)F)c(C#N)nn1-c1c(Cl)cc(C(F)(F)F)cc1Cl (stereo not shown) [Compound 25]
70 to 100%: mortality at 100 ppm [5] | mortality at 100 ppm [1] | mortality at 100 ppm [6] | mortality at 100 ppm [3] | mortality [4]

COCC(=O)Nc1c(S(=O)(=O)C(F)(F)F)c(C#N)nn1-c1ncc(C(F)(F)F)cc1Cl [Compound 50]
70 to 100%: mortality at 100 ppm [5] | mortality at 100 ppm [6] | mortality at 100 ppm [3] | mortality [4]

COCCOCC(=O)Nc1c([S+]([O-])C(F)(F)F)c(C#N)nn1-c1c(Cl)cc(C(F)(F)F)cc1Cl (stereo not shown) [Compound 9]
70 to 100%: mortality at 100 ppm [5] | mortality at 100 ppm [1] | mortality at 100 ppm [2] | mortality at 100 ppm [3] | mortality [4]

N#Cc1nn(-c2c(Cl)cc(C(F)(F)F)cc2Cl)c(NC(=O)CO)c1SC(F)(F)F [Compound 32]
70 to 100%: mortality at 100 ppm [5] | mortality at 100 ppm [3] | mortality [4]

COCC(=O)Nc1c([S+]([O-])C(F)(Cl)Cl)c(C#N)nn1-c1c(Cl)cc(C(F)(F)F)cc1Cl (stereo not shown) [Compound 17]
70 to 100%: mortality at 100 ppm [5] | mortality at 100 ppm [2] | mortality at 100 ppm [3] | mortality [4]

CCOC(C)C(=O)Nc1c(SC(F)(F)F)c(C#N)nn1-c1c(Cl)cc(C(F)(F)F)cc1Cl (stereo not shown) [Compound 39]
70 to 100%: mortality at 100 ppm [5] | mortality at 100 ppm [1] | mortality at 100 ppm [3] | mortality [4]

CCOCC(=O)Nc1c(SC(F)(F)F)c(C#N)nn1-c1c(Cl)cc(C(F)(F)F)cc1Cl [Compound 2]
70 to 100%: mortality at 100 ppm [5] | mortality at 100 ppm [1] | mortality at 100 ppm [2] | mortality at 100 ppm [6] | mortality at 100 ppm [3]

COCCOCC(=O)Nc1c(S(=O)(=O)C(F)(F)F)c(C#N)nn1-c1c(Cl)cc(C(F)(F)F)cc1Cl [Compound 13]
70 to 100%: mortality at 100 ppm [6] | mortality at 100 ppm [3] | mortality [4]

COC(C(=O)Nc1c(SC(F)(F)F)c(C#N)nn1-c1c(Cl)cc(C(F)(F)F)cc1Cl)c1ccccc1 (stereo not shown) [Compound 22]
70 to 100%: mortality at 100 ppm [5] | mortality at 100 ppm [2] | mortality at 100 ppm [6] | mortality at 100 ppm [3]

CCCCOC(C)C(=O)Nc1c(SC(F)(F)F)c(C#N)nn1-c1c(Cl)cc(C(F)(F)F)cc1Cl (stereo not shown) [Compound 42]
70 to 100%: mortality at 100 ppm [5] | mortality at 100 ppm [3] | mortality [4]

COCC(=O)Nc1c([S+]([O-])C(F)(F)F)c(C#N)nn1-c1c(Cl)cc(C(F)(F)F)cc1Cl (stereo not shown) [Compound 7]
70 to 100%: mortality at 100 ppm [5] | mortality at 100 ppm [1] | mortality at 100 ppm [2] | mortality at 100 ppm [3] | mortality [4]

COCC(=O)Nc1c(S(=O)(=O)C(F)(F)F)c(C#N)nn1-c1c(Cl)cc(C(F)(F)F)cc1Cl [Compound 11]
70 to 100%: mortality at 100 ppm [5] | mortality at 100 ppm [1] | mortality at 100 ppm [3] | mortality [4]

COC(C)C(=O)Nc1c([S+]([O-])C(F)(Cl)Cl)c(C#N)nn1-c1c(Cl)cc(C(F)(F)F)cc1Cl (stereo not shown) [Compound 28]
70 to 100%: mortality at 100 ppm [5] | mortality at 100 ppm [1] | mortality at 100 ppm [2] | mortality at 100 ppm [3] | mortality [4]

CCOCC(=O)Nc1c(S(=O)(=O)C(F)(F)F)c(C#N)nn1-c1c(Cl)cc(C(F)(F)F)cc1Cl [Compound 12]
70 to 100%: mortality at 100 ppm [5] | mortality at 100 ppm [2] | mortality at 100 ppm [3] | mortality [4]
